Here are results for three molecules from PMC4541407 (2015).

In assay [1] the test system is ds DNA (dual labelled) (DNA, duplex) CCAGTTCGTAGTAACCC/GGGTTACTACGAACTGG
The assay can be described thus: FRET melting. Conditions: 50 mM K+, 50 mM potassium cacodylate pH 7.4.

Assay [2] relates to c-KIT2 (dual labelled) (DNA, G4) GGGCGGGCGCGAGGGAGGGG
Briefly: FRET melting.

Assay [3] deals with c-KIT1 (dual labelled) (DNA, G4) GGGAGGGCGCTGGGAGGGAGGG
The assay can be described thus: FRET melting.

Assay [4] deals with c-MYC (dual labelled) (DNA, G4) TGAGGGTGGGTAGGGTGGGTAA
Briefly: FRET melting.

The subject of assay [5] is ds DNA (DNA, duplex) CCAGTTCGTAGTAACCC/GGGTTACTACGAACTGG
The assay can be described thus: fluorescence titration. The settings on record: 100 mM K+; 100 mM Tris-HCl pH 7.4, 25 °C; 1.0 µM ligand, DNA 0-6 equiv.

Assay [6] has as its system c-MYC (DNA, G4) TGAGGGTGGGTAGGGTGGGTAA
Briefly: fluorescence titration. Conditions: 100 mM Tris-HCl pH 7.4, 25 °C; for KD: 100 mM K+, 1.0 µM ligand, DNA 0-6 equiv.

Assay [7] concerns c-KIT1 (DNA, G4) GGGAGGGCGCTGGGAGGGAGGG
The assay can be described thus: fluorescence titration. The settings on record: 100 mM K+; 100 mM Tris-HCl pH 7.4, 25 °C; 1.0 µM ligand, DNA 0-6 equiv.

Assay [8] relates to c-KIT2 (DNA, G4) GGGCGGGCGCGAGGGAGGGG
The assay can be described thus: fluorescence titration. Conditions: 100 mM K+; 100 mM Tris-HCl pH 7.4, 25 °C; 1.0 µM ligand, DNA 0-6 equiv.

For assay [9], the system named is c-MYC (NMR oligonucleotide) (DNA, G4) TGAGGGTGGGTAGGGTGGGTAA
The assay can be described thus: 1H NMR imino titration.

The mark [10] stands for this setting: 50 mM K+, 50 mM potassium cacodylate pH 7.4, 1.0 µM ligand.

Take `C#Cc1ccc2c(c1)c1cc(C#C)ccc1n2CCCN(C)C`: the binding entry in assay [1] (1.0 µM ligand), in assay [2] (setting [10]), in assay [3] (setting [10]) and in assay [4] (setting [10]) was “no” throughout.
In the case of `CN(C)CCCNC(=O)c1ccc(-n2cc(-c3ccc4c(c3)c3cc(-c5cn(-c6ccc(C(=O)NCCCN(C)C)cc6)nn5)ccc3n4CCCN(C)C)nn2)cc1`, in [5], the Kd was above 10000 nM. Also, the binding result is on record as “no” in assay [1] (up to 1.0 µM ligand); “yes” in [2] (no added K+, MQ water pH 7.4, saturation at 750 nM ligand); “yes” in assay [3] (no added K+, MQ water pH 7.4, saturation at 1 µM ligand); “yes” in assay [6] (no added K+, 5.5-fold enhancement, 25 nm blue shift, Kd n.d.); “yes” in [4] (no added K+, MQ water pH 7.4, saturation at 250 nM ligand); “yes” in [9] (100 mM K+, 25 mM Tris-HCl pH 7.4, 298 K, 100 µM DNA, binds minor conformation). For the same molecule, the binding entry in [9] (no added K+, 25 mM Tris-HCl pH 7.4, 298 K, 100 µM DNA, binds minor conformation) was “yes”. Besides, the ΔTm is on record as 23.2 ± 1.6 K in assay [2] (50 mM K+, 50 mM potassium cacodylate pH 7.4, 500 nM ligand, maximum measurable shift); 39.4 ± 2.5 K in assay [3] (50 mM K+, 50 mM potassium cacodylate pH 7.4, 750 nM ligand, maximum measurable shift); 22.7 ± 1.4 K in [4] (50 mM K+, 50 mM potassium cacodylate pH 7.4, 100 nM ligand, maximum measurable shift). In addition, the values for the KD in assay [6], in assay [7] and in assay [8] were 300 ± 15 nM, 1380 ± 70 nM and 1370 ± 60 nM, respectively.
For the molecule `CN(C)CCCn1c2ccc(-c3cn(-c4ccc(N)cc4)nn3)cc2c2cc(-c3cn(-c4ccc(N)cc4)nn3)ccc21`, the KD in [6] was above 20000 nM. Besides, the binding entry is on record as “yes” in assay [4] (setting [10]) and “yes” in assay [9] (100 mM K+, 25 mM Tris-HCl pH 7.4, stabilizes minor conformation(s)).

Usually Kd stands for a measure of binding affinity in units of concentration. By KD is commonly meant the concentration at which binding is half-saturated.
